Patent publication US4885301A, “Purinone derivatives which have bronchodilator, vasodilator and anti-allergic activities” (Smith Kline & French Laboratories Limited, priority 1987, dated 1989)

Tests used:
[1] = test system: U46619-induced bronchoconstriction; assay: Bronchodilatation in vivo: U46619-induced bronchoconstriction in anaesthetised guinea-pigs; design: species or system guinea-pig (male Dunkin Hartley); details: Cavia porcellus, iv; i.v. bolus; U46619 infused i.v. 2.5 nmol/min; peak inhibition; read-out: BD50 (dose required to reduce the U46619-induced bronchoconstriction by 50%)
Method: Male guinea-pigs of the Dunkin Hartley strain (500-600 g) were anaesthetised with Sagatal (pentobarbital sodium) (60 mg/kg).
The dose of compound required to reduce the U46619-induced bronchoconstriction by 50% is given as the BD50.

[2] = molecular target: T1, calmodulin insensitive cyclic GMP phosphodiesterase (Sus scrofa, UniProt A0A287B475); assay: Inhibition of phosphodiesterase (PDE), cyclic GMP hydrolysis; format: biochemical, pig; details: 1 μM cyclic GMP, pH 7.5, 37° C.
T1 construct: Following dissection arteries were flash frozen in liquid nitrogen; from tissue; host or cells: pig pulmonary arteries or aortas, partially purified on DEAE-Sepharose, calmodulin-agarose and cibacron blue-agarose
Method: (§1) Eight pig hearts/lungs were collected from the abattoir and kept on ice until the pulmonary arteries or aortas could be dissected and excess fat removed. 120 g of tissue was dissected. Unless otherwise stated all procedures were done at 4° C. Following dissection arteries were flash frozen in liquid nitrogen and stored at -70° C. until required. On the day of homogenisation, tissue was cooled with liquid nitrogen and broken into small pieces by striking with a hammer. The tissue was then homogenised in 15 mM BIS-TRIS, 1 μg/ml leupeptin and antipain, 2 μg/ml pepstatin A, 5 μM benzamidine, 2 mM EDTA (ethylenediaminetetraacetic acid) and 2 mM dithiothreitol, pH 6.5. Phenylmethanesulphonylfluoride (PMSF) was added to a final concentration of 50 μM just prior to homogenisation. The homogenate was then centrifuged for 20 minutes at 30,000 g. Supernatant was filtered firstly through glass wool and then a 0.45 μm filter. […] The column was washed with 150 mls of homogenisation buffer and PDE activities eluted with 150 ml of homogenisation buffer containing 100 mM sodium acetate. Six 25 ml fractions were collected, the flow rate throughout was 80 ml/hr.
Fractions 2 and 3 were pooled and BIS-TRIS, MgCl2, CaCl2 added to final concentrations of 50 mM, 7 mM and 5 mM respectively. PMSF, leupeptin, antipain and pepstatin A were also added at the concentrations described above for these components. The pH of this pooled sample was corrected to 6.9.
The sample was applied, at a flow rate of 3 ml/hr, to a tandem column set up. The first column in the tandem was a 5 ml calmodulin-agarose column (Sigma) and the second a 1.5 ml cibacron blue 3GA-agarose column (Sigma). Both columns were pre-equilibrated with 50 mM BIS-TRIS, 5 mM MgCl2, 5 mM CaCl2, 5 mM benzamidine, 2 mM dithiothreitol pH 6.9. Following application of the sample the columns were washed with 20 ml of equilibration buffer.
The cibacron blue-agarose column was then disconnected and washed with a variety of buffers as indicated below (Buffer A=50 mM BIS-TRIS, 5 mM benzamidine, 2 mM dithiotheitol pH 7.0).
20 ml Buffer A+2M NaCl, 5 mM MgCl2
20 ml Buffer A+2M NaCl, 10 mM EDTA
PDE activity bound to the column was eluted with eight 2.5 ml aliquots of Buffer A containing 2M NaCl, 10 mM EDTA and 10 mM cGMP. Fractions found to contain PDE activity were pooled and concentrated to approximately 1/3 the original volume by dialysis for 2 hr against Buffer A:glycerol (50:50) containing 15 mM 2-mercaptoethanol, 2 mM EDTA. After dialysis the concentration of cGMP in the fraction was reduced by treatment using a PD-10 column (Pharmacia) using dialysis buffer.
The fraction produced was stored at -20° C. and for experiments diluted 50-fold and used as the source of PDE activity for the assay of compounds.
The standard reaction mixture contained, in a final volume of 100 μl,
1 μM 3', 5'-cGMP (including 0.1 μCi ^3 H-cGMP)
and buffered with 50 mM TRIS/5 mM MgCl2 pH 7.5. The reaction was initiated with enzyme, and was carried out at 37° C. for 5-10 minutes. The reaction was terminated by placing tubes in a boiling water bath for 2 minutes. […] Unreacted ^3 H-cGMP was washed from the column with 10×1 ml HEPES/NaCl buffer. Labelled […] was eluted into a scintillation vial with 6 ml 0.25M acetic acid and counted in a scintillation counter using 10 ml Instagel (Packard). […] Assays were performed in duplicate and values corrected for blanks of <2%.

[3] = test system: hindquarter vascular resistance; assay: Vasodilatation in vivo: hindquarter blood flow in anaesthetised rats; design: species or system rat (male Wistar); details: Rattus norvegicus, iv, bolus i.v., read-out: EDHQ50 (dose required to produce a 50% increase in hindquarter blood flow)
Method: Male Wistar rats (300 g) were anaesthetised with a sodium 5-ethyl-5-(1-methylpropyl)-2-thiobarbiturate/sodium pentobarbitone mixture i.p. (62.5 and 22.5 mg/kg respectively). The trachea was cannulated and the rats breathed spontaneously air enriched with O2 (5 ml/min). Blood pressure was recorded from a carotid artery and a jugular vein was cannulated for the administration of compounds. The temperature of the animal was maintained at 37° C. by the use of an electric blanket. […] The perfusion circuit was primed with 5% bovine serum albumin dissolved in 0.9% sodium chloride solution, pH adjusted to 7.4. Initially the pump rate was set between 10 and 15 ml/min to match the hind quarter perfusion pressure to that of the systemic circulation. Once set the pressure remained unaltered for the rest of the experiment. A change in the speed of the pump (equivalent to hindquarter blood flow) was used to assess the changes in hindquarter vascular resistance.
All compounds were administered as a bolus i.v. and from the dose response curves the dose required to produce a 50% increase in hindquarter blood flow (EDHQ50) was determined in μmoles/kg.

[4] = test system: guinea-pig isolated trachea; assay: Anti-allergic activity in vitro: ovalbumin-induced contraction of isolated trachea from sensitized guinea pigs; design: species or system guinea pig (male Hartley); details: for activity at 100 µM / Emax at 100 µM: Cavia porcellus, mean ± S.E.; for activity at 100 µM: 0.2 h, 30 min pretreatment, 12 minutes after OA (0.1 μg/ml), decline P<0.05, read-out: OA-induced contractile force as percentage of vehicle-treated control; for Emax at 100 µM: prior to OA challenge, N=4, read-out: reduction of basal tone, as a percentage of the maximum response to carbachol; for inhibition of antigen-induced contraction (in words): guinea-pig isolated trachea, 100 μM
Method: The animals were injected intramuscularly with 0.7 ml of a 5.0% OA solution prepared in isotonic saline. Four weeks after sensitization tracheas were removed and cut into spiral strips. Each trachea was cut half, placed in 10-ml water-jacketed tissue baths and attached with biological tissue clips via silk suture to force displacement transducers for recording isometric tension. One half of each trachea served as a control for the corresponding drug-treated tissue. […] The tissue preparations were placed under 2 g passive tension and equilibrated for 60 minutes, during which time they were washed every 15 minutes with fresh buffer. Each tissue was pretreated for 45 minutes with meclofenamic acid (1 μM).
Tissues were pretreated with the compound under test (100 μM), or vehicle (0.4 mM NaOH) for 30 minutes prior to the addition of OA. OA (0.1 μg/ml) was added to all tissues and the contraction was monitored for 15 minutes. […] To evaluate effects of the test compounds, the degree of contraction was calculated 2 and 12 minutes after the addition of OA. OA-induced contraction of drug-treated tissues was expressed as a percentage of the response of vehicle-treated, paired controls.
Results are expressed as a mean ±S.E. of 4 experiments. Statistical significance of differences between the means of control and drug-treated groups was determined using a paired Student's t test.

[5] = test system: PDE activity isolated from pig pulmonary arteries or aortas; assay: Properties of PDE activity: substrate kinetics; format: biochemical
Method: as §1
Fractions 2 and 3 were pooled and BIS-TRIS, MgCl2, CaCl2 added to final concentrations of 50 mM, 7 mM and 5 mM respectively. PMSF, leupeptin, antipain and pepstatin A were also added at the concentrations described above for these components. […]

[6] = test system: antigen-induced bronchoconstriction; assay: Anti-allergic activity in vivo: ovalbumin-induced bronchoconstriction in sensitized anesthetized guinea pigs; design: species or system guinea pig (adult male albino Hartley); details: 100 μmol/kg intraduodenal
Method: Adult male albino Hartley strain guinea pigs weighing 400-600 g were actively sensitized to OA according to the procedure hereinbefore described. To measure pulmonary mechanics, a polyethylene catheter was inserted into the trachea of anesthetized (sodium pentobarbital, 35 mg/kg, i.p.) animals and airflow was measured via a heated pneumotachograph in combination with a differential pressure transducer connected to the pneumotachograph. Airflow and transpulmonary pressure signals were fed into an on-line pulmonary mechanics computer which integrated the flow signal to obtain tidal volume. Total pulmonary resistance (RL) and dynamic lung compliance (CDYN) were calculated at isovolumetric points according to the method of Amdur and Mead (Am. J. Physiol. 192:364-368, 1958).
A compound under test was dissolved in 25 mM NaHCO3 plus one drop of polyethylene glycol 400 to a concentration of 100 mM. Based on the weight of the animal, the appropriate amount of solution was removed and the volume brought up to 1 ml with 25 mM NaHCO3. For the intraduodenal administration of test compounds, a small midline incision was made in the abdomen, the duodenum was exposed, and a butterfly needle attached to plastic tubing was inserted. All solutions were adjusted to the same volume (1 ml) and administered through the butterfly needle and followed with 0.5 ml of distilled water. The needle was then removed and the abdominal incision was stapled to prevent heat loss.
Aerosols of OA were generated to deliver approximately 0.375 μl/breath. Pressure, flow rate and sensitivity were set such that a maximum pleural pressure of 20 cm water was attained during inhalation. One hour after the administration of the test compounds, quinea pigs were challenged with 5 inhalations of OA (0.5 mg/ml) via the tracheal cannula and changes in CDYN and RL were monitored for 10 minutes. […]
Results are expressed as a mean ± S.E. of 4 experiments. Statistical significance of differences between the means of control and drug-treated groups was determined using a unpaired Student's t test.

Row | Compound | ED50 [1] | IC50 [2] | further results
1 | CCCCOc1ccccc1-c1nc2[nH]c(=O)[nH]c2c(=O)[nH]1 [Example 8, 2-(2-Butoxyphenyl)purine-6,8-dione] | 1.5 µmol/kg | 6.79 µM | 
2 | CC(C)COc1ccccc1-c1nc2nc[nH]c2c(=O)[nH]1 [Example 4, 2-(2-Isobutoxyphenyl)-6-purinone] | 5.3 µmol/kg | 1.74 µM | 
3 | CCOc1ccccc1-c1nc2nc[nH]c2c(=O)[nH]1 [Example 2, 2-(2-Ethoxyphenyl)-6-purinone] | 6.5 µmol/kg | 4.49 µM | 
4 | CCCOc1ccccc1-c1nc2[nH]c(=O)[nH]c2c(=O)[nH]1 [Example 5, 2-(2-Propoxyphenyl)purine-6,8-dione] | 1 µmol/kg | 1.25 µM | ED50 [3]: 3.7 µmol/kg; activity at 100 µM [4]: 60 ± 4%; Emax at 100 µM [4]: 24 ± 7%; inhibition of antigen-induced contraction (in words) [4]: inhibit antigen-induced contraction of the guinea-pig isolated trachea
5 | Nc1nc2c(ncn2[C@@H]2O[C@@H]3COP(=O)(O)O[C@H]3[C@H]2O)c(=O)[nH]1 [cGMP] |  |  | Ratio of cGMP/cAMP hydrolysis ([5]; 1 μM substrate): 30; Km ([5]; substrate of the isolated PDE): 1.3 µM
6 | CCOc1ccccc1-c1nc2[nH]c(=O)[nH]c2c(=O)[nH]1 [Example 7, 2-(2-Ethoxyphenyl)purine-6,8-dione] | 3.6 µmol/kg | 5.26 µM | 
7 | CCCOc1ccccc1-c1nc2nc[nH]c2c(=O)[nH]1 [Example 1, 2-(2-Propoxyphenyl)-6-purinone] | 3.6 µmol/kg |  | ED50 [3]: 10.8 µmol/kg; activity at 100 µM [4]: 46 ± 9%; Emax at 100 µM [4]: 17 ± 3%; inhibition of antigen-induced contraction (in words) [4]: inhibit antigen-induced contraction of the guinea-pig isolated trachea; antigen-induced bronchoconstriction (in words) ([6]; 60 minutes before OA challenge, N=4): significantly reduced antigen-induced bronchoconstriction; increase in total pulmonary resistance (RL) after OA challenge ([6]; 60 minutes before OA, 5 minutes after challenge, N=4, mean ± S.E., P<0.05 vs. vehicle (vehicle 162±40%)): 51±26%; dynamic lung compliance (CDYN) after OA challenge (in words) ([6]; 60 minutes before OA, 5 minutes after challenge, P<0.01 vs. vehicle): unchanged from baseline
8 | CCCCOc1ccccc1-c1nc2nc[nH]c2c(=O)[nH]1 [Example 3, 2-(2-Butoxyphenyl)-6-purinone] | 3.8 µmol/kg | 5.04 µM | 
9 | CC(C)COc1ccccc1-c1nc2[nH]c(=O)[nH]c2c(=O)[nH]1 [Example 9, 2-(2-Isobutoxypheny)purine-6,8-dione] | 4.5 µmol/kg | 3.64 µM | 
